Assay results published in patent US9073855B2, “BCL-2 selective apoptosis-inducing agents for the treatment of cancer and immune diseases” (AbbVie Inc., priority 2008, dated 2015).

Experiments:
GST-Bcl-XL = GST-Bcl-XL (Homo sapiens, UniProt Q07817); assay: TR-FRET binding assay, GST-Bcl-XL with F-Bak peptide probe; conditions: TR-FRET Binding Affinity, GST-Bcl-XL, F-Bak peptide probe
Procedure, shortened: (§1)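 Ki was derived with Wang's equation for competitive binding of two ligands. The read-out was time-resolved fluorescence after a 3 h room-temperature incubation, using a Tb-labelled antibody donor and the F-Bak peptide acceptor (excitation 340/35 nm). Test compounds entered as DMSO serial dilutions starting at 50 μM, which was the 2× concentration.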

GST-Bcl-2 = GST-Bcl-2 (Homo sapiens, UniProt P10415); assay: TR-FRET binding assay, GST-Bcl-2 with F-Bak peptide probe; conditions: for Ki: TR-FRET Binding Affinity, GST-Bcl-2, F-Bak peptide probe; for Binding selectivity ratio (Bcl-XL Ki/Bcl-2 Ki): ratio of TR-FRET Ki values, Bcl-XL over Bcl-2
Chain of GST-Bcl-2 (P10415 whole entry): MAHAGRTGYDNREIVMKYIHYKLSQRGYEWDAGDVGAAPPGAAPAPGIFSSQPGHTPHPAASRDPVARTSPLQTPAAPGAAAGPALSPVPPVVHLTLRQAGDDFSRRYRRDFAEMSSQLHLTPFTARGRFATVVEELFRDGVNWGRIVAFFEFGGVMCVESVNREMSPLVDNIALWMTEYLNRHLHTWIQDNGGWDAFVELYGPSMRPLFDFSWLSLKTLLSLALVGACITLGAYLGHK
Procedure, shortened: as §1

FL5.12/Bcl-2 cells = assay: FL5.12/Bcl-2 cell viability assay under IL-3 withdrawal (CellTitre Glo); type: cell-based, murine; conditions: Mus musculus, IL-3 withdrawn 48 hrs, then 24 hrs with compound
Procedure, shortened: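 Bcl-2-overexpressing murine FL5.12 transfectants underwent IL-3 removal for 48 hrs before a 24 hr compound treatment. Cell viability was quantified with CellTitre Glo.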

Chain of GST-Bcl-XL (Q07817 whole entry): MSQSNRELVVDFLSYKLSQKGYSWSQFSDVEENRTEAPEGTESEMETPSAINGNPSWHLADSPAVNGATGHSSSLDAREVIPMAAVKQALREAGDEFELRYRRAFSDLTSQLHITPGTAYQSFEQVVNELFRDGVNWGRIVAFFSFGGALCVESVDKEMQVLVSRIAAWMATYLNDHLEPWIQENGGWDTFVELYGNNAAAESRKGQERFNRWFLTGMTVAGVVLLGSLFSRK

Structure (SMILES) | Ki (GST-Bcl-XL) | Ki (GST-Bcl-2) | Binding selectivity ratio (Bcl-XL Ki/Bcl-2 Ki) (GST-Bcl-2) | EC50 (FL5.12/Bcl-2 cells)
CC1(C)CCC(CN2CCN(c3ccc(C(=O)NS(=O)(=O)c4cnc(OCC5(F)CCOCC5)c(Cl)c4)c(Oc4cccc5[nH]ccc45)c3)CC2)=C(c2ccc(Cl)cc2)C1 [Example 405, N-({5-chloro-6-[(4-fluorotetrahydro-2H-pyran-4-yl)methoxy]pyridin-3-yl}sulfonyl)-4-(4-{[2-(4-chlorophenyl)-4,4-dimethylcyclohex-1-en-1-yl]methyl}piperazin-1-yl)-2-(1H-indol-4-yloxy)benzamide] | 55.3 nM | 0.04 nM | 1394.8 | 11.6 nM
CN1CC(Nc2ccc(S(=O)(=O)NC(=O)c3ccc(N4CCN(CC5=C(c6ccc(Cl)cc6)CC(C)(C)CC5)CC4)cc3Oc3ccc4[nH]ccc4c3)cc2[N+](=O)[O-])CCC1=O (centres unmarked) [Example 282, 4-(4-{[2-(4-chlorophenyl)-4,4-dimethylcyclohex-1-en-1-yl]methyl}piperazin-1-yl)-2-(1H-indol-5-yloxy)-N-({4-[(1-methyl-6-oxopiperidin-3-yl)amino]-3-nitrophenyl}sulfonyl)benzamide] | 562 nM | 0.164 nM | – | 92.2 nM
CC1(C)CCC(CN2CCN(c3ccc(C(=O)NS(=O)(=O)c4cnc(OCC5(F)CCOCC5)c(C#N)c4)c(Oc4ccc5[nH]ccc5c4)c3)CC2)=C(c2ccc(Cl)cc2)C1 [Example 385, 4-(4-{[2-(4-chlorophenyl)-4,4-dimethylcyclohex-1-en-1-yl]methyl}piperazin-1-yl)-N-({5-cyano-6-[(4-fluorotetrahydro-2H-pyran-4-yl)methoxy]pyridin-3-yl}sulfonyl)-2-(1H-indol-5-yloxy)benzamide] | 130 nM | 0.062 nM | – | 56.4 nM
O=C(NS(=O)(=O)c1ccc(NCC2CCOCC2)c([N+](=O)[O-])c1)c1ccc(N2CCN(CC3=C(c4ccc(Cl)cc4)CCC(O)C3)CC2)cc1Oc1ccc2[nH]ccc2c1 (centres unmarked) [Example 248, 4-(4-{[2-(4-chlorophenyl)-5-hydroxycyclohex-1-en-1-yl]methyl}piperazin-1-yl)-2-(1H-indol-5-yloxy)-N-({3-nitro-4-[(tetrahydro-2H-pyran-4-ylmethyl)amino]phenyl}sulfonyl)benzamide] | 155 nM | 0.013 nM | – | 49.8 nM
CC1(C)CCC(CN2CCN(c3ccc(C(=O)NS(=O)(=O)c4cccc(C(=O)NCC5CCOCC5)c4)c(Oc4ccc5[nH]ccc5c4)c3)CC2)=C(c2ccc(Cl)cc2)C1 [Example 345, 4-(4-{[2-(4-chlorophenyl)-4,4-dimethylcyclohex-1-en-1-yl]methyl}piperazin-1-yl)-2-(1H-indol-5-yloxy)-N-[(3-{[(tetrahydro-2H-pyran-4-ylmethyl)amino]carbonyl}phenyl)sulfonyl]benzamide] | > 660 nM | 1.15 nM | – | > 500 nM
CC1(C)CCC(CN2CCN(c3ccc(C(=O)NS(=O)(=O)c4ccc(NCCCN5CCNC(=O)C5)c([N+](=O)[O-])c4)c(Oc4cccc5[nH]ccc45)c3)CC2)=C(c2ccc(Cl)cc2)C1 [Example 223, 4-(4-{[2-(4-chlorophenyl)-4,4-dimethylcyclohex-1-en-1-yl]methyl}piperazin-1-yl)-2-(1H-indol-4-yloxy)-N-[(3-nitro-4-{[3-(3-oxopiperazin-1-yl)propyl]amino}phenyl)sulfonyl]benzamide] | 97.3 nM | 0.169 nM | – | 37.1 nM
CC1(C)CCC(CN2CCN(c3ccc(C(=O)NS(=O)(=O)c4cnc(OCC5CCOCC5)c(Cl)c4)c(Oc4cccc5[nH]ccc45)c3)CC2)=C(c2ccc(Cl)cc2)C1 [Example 387, 4-(4-{[2-(4-chlorophenyl)-4,4-dimethylcyclohex-1-en-1-yl]methyl}piperazin-1-yl)-N-{[5-chloro-6-(tetrahydro-2H-pyran-4-ylmethoxy)pyridin-3-yl]sulfonyl}-2-(1H-indol-4-yloxy)benzamide] | 280 nM | 0.162 nM | – | 86.5 nM
CC1(C)CCC(CN2CCN(c3ccc(C(=O)NS(=O)(=O)c4ccc(NCCC5CCOCC5)c([N+](=O)[O-])c4)c(Oc4ccc5[nH]ccc5c4)c3)CC2)=C(c2ccc(Cl)cc2)C1 [Example 291, 4-(4-{[2-(4-chlorophenyl)-4,4-dimethylcyclohex-1-en-1-yl]methyl}piperazin-1-yl)-2-(1H-indol-5-yloxy)-N-({3-nitro-4-[(2-tetrahydro-2H-pyran-4-ylethyl)amino]phenyl}sulfonyl)benzamide] | > 660 nM | 0.56 nM | – | 58 nM
CC1(C)CCC(CN2CCN(c3ccc(C(=O)NS(=O)(=O)c4cnc(OCC5(F)CCOCC5)c(Cl)c4)c(Oc4cccc5[nH]ncc45)c3)CC2)=C(c2ccc(Cl)cc2)C1 [Example 404, N-({5-chloro-6-[(4-fluorotetrahydro-2H-pyran-4-yl)methoxy]pyridin-3-yl}sulfonyl)-4-(4-{[2-(4-chlorophenyl)-4,4-dimethylcyclohex-1-en-1-yl]methyl}piperazin-1-yl)-2-(1H-indazol-4-yloxy)benzamide] | 30.3 nM | 0.012 nM | 2423.5 | 2.34 nM
CC(C)Oc1cc(-c2ccc(Cl)cc2)c(CN2CCN(c3ccc(C(=O)NS(=O)(=O)c4ccc(NCC5CCOCC5)c([N+](=O)[O-])c4)c(Oc4ccc5[nH]ccc5c4)c3)CC2)cn1 [Example 330, 4-(4-{[4-(4-chlorophenyl)-6-isopropoxypyridin-3-yl]methyl}piperazin-1-yl)-2-(1H-indol-5-yloxy)-N-({3-nitro-4-[(tetrahydro-2H-pyran-4-ylmethyl)amino]phenyl}sulfonyl)benzamide] | > 660 nM | 74.9 nM | – | > 500 nM
CNc1ccc(S(=O)(=O)NC(=O)c2ccc(N3CCN(CC4=C(c5ccc(Cl)cc5)CC(C)(C)CC4)CC3)cc2Oc2ccc3[nH]ccc3c2)cc1[N+](=O)[O-] [Example 245, 4-(4-{[2-(4-chlorophenyl)-4,4-dimethylcyclohex-1-en-1-yl]methyl}piperazin-1-yl)-2-(1H-indol-5-yloxy)-N-{[4-(methylamino)-3-nitrophenyl]sulfonyl}benzamide] | > 660 nM | 1.62 nM | – | 72.4 nM
CN(C)CC#Cc1ccc(-c2ccc(Cl)cc2)c(CN2CCN(c3ccc(C(=O)NS(=O)(=O)c4ccc(NCC5CCOCC5)c([N+](=O)[O-])c4)c(Oc4cccc5[nH]ccc45)c3)CC2)c1 [Example 209, 4-[4-({4′-chloro-4-[3-(dimethylamino)prop-1-ynyl]-1,1′-biphenyl-2-yl}methyl)piperazin-1-yl]-2-(1H-indol-4-yloxy)-N-({3-nitro-4-[(tetrahydro-2H-pyran-4-ylmethyl)amino]phenyl}sulfonyl)benzamide] | > 660 nM | 0.267 nM | – | 139 nM
CC1(C)CCC(CN2CCN(c3ccc(C(=O)NS(=O)(=O)c4ccc(NC5CCC(N6CCOCC6)CC5)c([N+](=O)[O-])c4)c(Oc4ccc5[nH]ccc5c4)c3)CC2)=C(c2ccc(Cl)cc2)C1 (centres unmarked) [Example 363, 4-(4-{[2-(4-chlorophenyl)-4,4-dimethylcyclohex-1-en-1-yl]methyl}piperazin-1-yl)-2-(1H-indol-5-yloxy)-N-({4-[(4-morpholin-4-ylcyclohexyl)amino]-3-nitrophenyl}sulfonyl)benzamide] | > 660 nM | 0.18 nM | – | 86.9 nM
CC(c1ccccc1-c1ccc(Cl)cc1)N1CCN(c2ccc(C(=O)NS(=O)(=O)c3ccc(NCC4CCOCC4)c([N+](=O)[O-])c3)c(Oc3cccc4[nH]ccc34)c2)CC1 (centres unmarked) [Example 175, 4-{4-[1-(4′-chloro-1,1′-biphenyl-2-yl)ethyl]piperazin-1-yl}-2-(1H-indol-4-yloxy)-N-({3-nitro-4-[(tetrahydro-2H-pyran-4-ylmethyl)amino]phenyl}sulfonyl)benzamide] | > 660 nM | 0.1 nM | – | 6.2 nM
CC1(C)CCC(CN2CCN(c3ccc(C(=O)NS(=O)(=O)c4ccc(NC[C@H]5CC[C@@H](O)CC5)c([N+](=O)[O-])c4)c(Oc4ccc5[nH]ccc5c4)c3)CC2)=C(c2ccc(Cl)cc2)C1 [Example 312, Cis-4-(4-{[2-(4-chlorophenyl)-4,4-dimethylcyclohex-1-en-1-yl]methyl}piperazin-1-yl)-N-[(4-{[(4-hydroxycyclohexyl)methyl]amino}-3-nitrophenyl)sulfonyl]-2-(1H-indol-5-yloxy)benzamide] | > 660 nM | 0.34 nM | – | 19.2 nM
CC1(C)CCC(CN2CCN(c3ccc(C(=O)NS(=O)(=O)c4ccc(NCCCn5ccnc5)c([N+](=O)[O-])c4)c(Oc4ccc5[nH]ccc5c4)c3)CC2)=C(c2ccc(Cl)cc2)C1 [Example 377, 4-(4-{[2-(4-chlorophenyl)-4,4-dimethylcyclohex-1-en-1-yl]methyl}piperazin-1-yl)-N-[(4-{[3-(1H-imidazol-1-yl)propyl]amino}-3-nitrophenyl)sulfonyl]-2-(1H-indol-5-yloxy)benzamide] | 325 nM | 0.14 nM | – | 85.7 nM
CC1(C)CCC(CN2CCN(c3ccc(C(=O)NS(=O)(=O)c4ccc(OCC#CCN5CCOCC5)c([N+](=O)[O-])c4)c(Oc4ccc5[nH]ccc5c4)c3)CC2)=C(c2ccc(Cl)cc2)C1 [Example 390, 4-(4-{[2-(4-chlorophenyl)-4,4-dimethylcyclohex-1-en-1-yl]methyl}piperazin-1-yl)-2-(1H-indol-5-yloxy)-N-({4-[(4-morpholin-4-ylbut-2-ynyl)oxy]-3-nitrophenyl}sulfonyl)benzamide] | 116 nM | 0.341 nM | – | 41.2 nM
